# Read-outs that look alike come from different tables or passages of the source.
# Tests used:
# xanthine oxidase (XO) [1] = target: xanthine oxidase (XO); parameters: method as in doi:10.2991/efood.k.190802.004; details: read-out: IC50 (XO inhibition); cited from earlier work
# mice = assay: NOEL estimated for mice from rat value; assay type: in vivo
# Xanthine oxidase (XO) [2] = target: T1, Xanthine oxidase (XO) (Bos taurus, UniProt P80457); assay: Fluorescence titration (quenching) assay; assay type: binding, cow; details: for Kq (quenching rate constant): τ0 10^−8 s
# Method: An aliquot of XO solution (2.0 ml, 0.04 U/mL) was placed in a quartz cuvette (1 cm) and titrated with 0.1 ml EA solution (0.1 mmol/L) each time. The mixture was then placed in a thermostatic bath, and after 5 min, fluorescence spectra ranging from 290 to 500 nm (excitation: 280 nm) were recorded at 298, 304 and 310 K using the FS5 spectrofluorometer (Edinburgh Instruments, England). The fluorescence background was corrected by subtracting the PBS blank. Additionally, to account for EA's UV absorption, all fluorescence data were corrected according to the following equation: (4) Fc=Fme^A1+A2/2
# Here, F m and F c represent the measured and corrected fluorescence, respectively, and A1 and A2 denote EA UV absorbance at 280 nm (excitation wavelength) and 404 nm (emission wavelength), respectively.
# The Stern‐Volmer equation shown below was used to distinguish the quenching mechanism. (5) F0/F=1+Kqτ0[Q]=1+Ksv[Q]
# The fluorescence intensities with and without EA are indicated by the symbols F and F 0, respectively. The quenching rate constant of the biological macromolecule is represented by K q . The average lifetime of fluorophore is represented by the symbol τ0 (10^−8 s). K SV is the dynamic quenching constant of Stern–Volmer; [Q] is the concentration of EA. […] Then K SV values at 298, 304 and 310 K were calculated to be 1.881 × 10^5, 1.661 × 10^5, and 1.455 × 10^5 L/mol, respectively, using the Stern‐Volmer equation. […] Similarly, the K q values at 298, 304 and 310 K were determined to be 1.881 × 10^13, 1.661 × 10^13, and 1.455 × 10^13 L/(mol·s), respectively.
# (6) logF0−F/F=logKa+nlog[Q]
# To determine the interaction forces between EA and XO, such as hydrogen bonding, hydrophobic interaction, van der Waals force, and electrostatic force, thermodynamic parameters including […], and Gibbs free energy (△G) were analysed using the Van't Hoff Equation (7) and Gibbs‐Helmholtz Equation (8) at different temperatures. The equations are as follows: (7) logKa=−∆H/2.303RT+∆S/2.303R (8) ∆G=∆H−T∆S
# xanthine oxidase (XO) [3] = target: xanthine oxidase (XO); parameters: method as in PMID 2393948; details: read-out: IC50 (XO inhibition); cited from earlier work
# [4] = test system: PO-induced hyperuricemia mouse model; assay: PO-induced hyperuricemic mouse model, serum uric acid; assay type: in vivo, ICR mice; details: mice
# Method: ICR mice weighing 25 ± 2 g were purchased from Wushi Dongwu Co., LTD (Fujian, China). The protocol for animal experiments (#202030) was approved by the Animal Use and Care Committee of Putian University. To establish a hyperuricemic mouse model, we followed our previously reported method, which involved intraperitoneal injection of PO at a dose of 250 mg/kg. […] Mice in all groups except the CG were given PO to raise serum uric acid levels, while the CG mice were given 1 ml of 0.9% NaCl. […] After 2 hours, blood was obtained from the tail vein and was centrifuged at 4000 rpm for 8 min. The serum obtained was kept at −80 °C for the following assay.
# Xanthine oxidase (XO) [5] = target: T1, Xanthine oxidase (XO); assay: Determination of xanthine oxidase activity (UV, 290 nm); assay type: biochemical, cow
# Method: Xanthine oxidase activity was determined following a previously reported method [20]. The test compounds were dissolved in DMSO, and the resulting solutions were appropriately diluted for the assay. Xanthine oxidase and xanthine solutions with concentrations of 0.04 U/mL and 0.1 mmol/L, respectively, were prepared using 0.2 mol/L phosphate buffered solution (PBS, pH 7.4) as the solvent. An aliquot of the test solution (0.1 ml) with various concentrations was added separately to XO solution (0.2 ml). The resulting solution was well mixed and incubated for 5 min at 298 K. Then, the substrate (xanthine) solution was pipetted into the mixture to initiate the enzymatic reaction, and the OD value of the resulting solution was recorded every 60 s at 290 nm using a UV spectrometer (UV 2550, SHIMADZU) at 298 K. Xanthine oxidase activity was determined without adding an inhibitor and was considered 100%. […] Each test was performed three times (n = 3). The equation for calculating the relative activity (RA) of XO is as follows: RA (%) = R i/R c × 100%, where R i and R c represent the reaction rates of the solution with and without inhibitors, respectively. The IC50 value was calculated based on the plot of RA versus inhibitor concentration.
# xanthine oxidase (XO) [6] = target: xanthine oxidase (XO); parameters: method as in PMID 29567192; details: fluorescence quenching technology; read-out: IC50 (XO inhibition); cited from earlier work
# xanthine oxidase (XO) [7] = target: xanthine oxidase (XO); parameters: method as in PMID 15234783; details: read-out: IC50 (XO inhibition); cited from earlier work
# [8] = cited from earlier work
# Xanthine oxidase (XO) [9] = target: T1, Xanthine oxidase (XO); assay: Kinetic analysis of XO inhibition (Lineweaver-Burk); assay type: biochemical, cow
# Method: Here, [S] and [I] represent the substrate (xanthine) and inhibitor (EA) concentrations, respectively. The reaction rate and maximum reaction rate are represented by ν and Vmax, respectively. K i and K is indicate the inhibition constants of EA binding with the free XO and XO‐xanthine complex, respectively. The Michaelis‐Menten constant is denoted by the symbol K m . The type of inhibition exerted by EA on XO was determined using Equation (1).
# xanthine oxidase (XO) [10] = details: read-out: IC50 (XO inhibition); cited from earlier work
# rats = details: cited from earlier work
# [11] = Van't Hoff equation, 298, 304 and 310 K
# T1 sequence (P80457 whole entry): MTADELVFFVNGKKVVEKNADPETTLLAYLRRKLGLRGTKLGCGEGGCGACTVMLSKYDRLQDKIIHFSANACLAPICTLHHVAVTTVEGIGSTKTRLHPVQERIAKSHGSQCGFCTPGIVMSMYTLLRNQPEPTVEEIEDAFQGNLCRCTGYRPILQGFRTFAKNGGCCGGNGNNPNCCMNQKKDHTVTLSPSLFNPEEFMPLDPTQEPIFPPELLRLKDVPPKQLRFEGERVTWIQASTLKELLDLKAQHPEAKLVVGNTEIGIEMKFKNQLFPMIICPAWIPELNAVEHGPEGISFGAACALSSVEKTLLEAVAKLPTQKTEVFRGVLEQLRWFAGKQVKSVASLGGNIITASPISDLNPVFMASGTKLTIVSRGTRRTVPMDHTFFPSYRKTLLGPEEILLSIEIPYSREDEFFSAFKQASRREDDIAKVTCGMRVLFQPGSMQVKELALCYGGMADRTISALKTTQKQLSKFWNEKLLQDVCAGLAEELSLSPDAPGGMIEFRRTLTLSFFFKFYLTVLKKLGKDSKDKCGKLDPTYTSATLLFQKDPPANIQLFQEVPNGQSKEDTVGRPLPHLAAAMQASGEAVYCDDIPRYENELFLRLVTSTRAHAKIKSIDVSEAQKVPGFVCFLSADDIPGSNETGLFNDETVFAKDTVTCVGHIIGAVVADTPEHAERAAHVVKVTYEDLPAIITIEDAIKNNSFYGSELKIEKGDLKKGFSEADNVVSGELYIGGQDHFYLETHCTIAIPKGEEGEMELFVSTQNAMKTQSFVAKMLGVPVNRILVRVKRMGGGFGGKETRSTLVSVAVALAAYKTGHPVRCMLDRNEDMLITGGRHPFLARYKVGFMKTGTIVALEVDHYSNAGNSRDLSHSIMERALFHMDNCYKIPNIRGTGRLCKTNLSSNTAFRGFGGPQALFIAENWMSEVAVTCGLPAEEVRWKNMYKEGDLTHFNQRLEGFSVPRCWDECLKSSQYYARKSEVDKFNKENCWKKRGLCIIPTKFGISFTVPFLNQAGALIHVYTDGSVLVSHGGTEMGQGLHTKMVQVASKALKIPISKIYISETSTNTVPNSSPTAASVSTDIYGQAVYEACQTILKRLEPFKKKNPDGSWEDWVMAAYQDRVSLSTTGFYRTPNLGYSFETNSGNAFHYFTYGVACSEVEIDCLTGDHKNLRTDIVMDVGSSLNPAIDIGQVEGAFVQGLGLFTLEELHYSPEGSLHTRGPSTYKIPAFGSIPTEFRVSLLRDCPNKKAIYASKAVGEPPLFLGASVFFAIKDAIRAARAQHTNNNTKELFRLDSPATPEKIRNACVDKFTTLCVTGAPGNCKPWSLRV
smiles,measurement,setting,value
"O=c1oc2c(O)c(O)cc3c(=O)oc4c(O)c(O)cc1c4c23 [EA, Ellagic acid]",IC50,xanthine oxidase (XO) [1],18 µM
same,"NOEL, estimated value for mice",mice,4215 mg/kg/day
same,Fluorescence quenching mechanism,Xanthine oxidase (XO) [2],static quenching
same,KSV (Stern-Volmer dynamic quenching constant),Xanthine oxidase (XO) [2]; 298 K,188100 L/mol
same,Ksv,Xanthine oxidase (XO) [2]; 298 K,1.881 ± 0.05 ×10^5 L/mol
same,n (number of binding sites),Xanthine oxidase (XO) [2]; 298 K,1.183 ± 0.02
same,△G,Xanthine oxidase (XO) [2]; 298 K,-5.753 ± 0.0669 kcal/mol
same,Kq (quenching rate constant),Xanthine oxidase (XO) [2]; 298 K,1.881e+13 M⁻¹ s⁻¹
same,KSV (Stern-Volmer dynamic quenching constant),Xanthine oxidase (XO) [2]; 304 K,166100 L/mol
same,Ksv,Xanthine oxidase (XO) [2]; 304 K,1.661 ± 0.03 ×10^5 L/mol
same,n (number of binding sites),Xanthine oxidase (XO) [2]; 304 K,1.236 ± 0.04
same,△G,Xanthine oxidase (XO) [2]; 304 K,-5.758 ± 0.0765 kcal/mol
same,Kq (quenching rate constant),Xanthine oxidase (XO) [2]; 304 K,1.661e+13 M⁻¹ s⁻¹
same,KSV (Stern-Volmer dynamic quenching constant),Xanthine oxidase (XO) [2]; 310 K,145500 L/mol
same,Ksv,Xanthine oxidase (XO) [2]; 310 K,1.455 ± 0.04 ×10^5 L/mol
same,n (number of binding sites),Xanthine oxidase (XO) [2]; 310 K,1.308 ± 0.02
same,△G,Xanthine oxidase (XO) [2]; 310 K,-5.762 ± 0.0813 kcal/mol
same,Kq (quenching rate constant),Xanthine oxidase (XO) [2]; 310 K,1.455e+13 M⁻¹ s⁻¹
same,XO fluorescence intensity decreased to,"Xanthine oxidase (XO) [2]; EA […] μmol/L, 404 nm, Ex 280 nm",14.15%
same,△H,Xanthine oxidase (XO) [2]; [11],-5.514 ± 0.0598 kcal/mol
same,△S,Xanthine oxidase (XO) [2]; [11],3.36 ± 0.03 J/mol/K
same,IC50,xanthine oxidase (XO) [3],3.1 µM
same,Serum uric acid,"[4]; 160 mg/kg intragastrically after PO 250 mg/kg i.p., MG 6.18 ± 0.18",5.09 ± 0.57 mg/dL
same,Serum uric acid,"[4]; 320 mg/kg intragastrically after PO 250 mg/kg i.p., MG 6.18 ± 0.18",4.19 ± 0.53 mg/dL
same,Serum uric acid,"[4]; 480 mg/kg intragastrically after PO 250 mg/kg i.p., MG 6.18 ± 0.18",2.87 ± 0.41 mg/dL
same,IC50,"Xanthine oxidase (XO) [5]; T = 298 K, pH 7.4, [xanthine] = 0.1 mmol/L, [XO] = 0.04 U/mL, read-out: IC50 (XO inhibition)",22.97 ± 0.12 µM
same,Reversibility of XO inhibition,"Xanthine oxidase (XO) [5]; plots of ν versus [XO], [xanthine] = 0.1 mmol/L",reversible inhibitor
same,IC50,xanthine oxidase (XO) [6],6.5 µM
same,IC50,xanthine oxidase (XO) [7],71.5 µM
same,Bioavailability,[8],very poor
same,Permeability,[8],limited
same,Solubility,[8],low
same,Type of inhibition on XO,Xanthine oxidase (XO) [9]; Lineweaver-Burk plot,mixed‐type inhibitor
same,"Kis (inhibition constant, binding with XO-xanthine complex)","Xanthine oxidase (XO) [9]; [XO] = 0.04 U/mL, xanthine 6.25 to 50 μmol/L",57.24 ± 0.23 µmol/L
same,Ki,"Xanthine oxidase (XO) [9]; [XO] = 0.04 U/mL, xanthine 6.25 to 50 μmol/L, read-out: Ki (inhibition constant, binding with free XO)",10.6 ± 0.08 µM
same,IC50,xanthine oxidase (XO) [10],166 µM
same,Safe dietary supplement dose,"rats; rat, in vivo",≤ 3011 mg/kg/day
same,Safe dietary supplement level,"rats; rat, in vivo",up to 5%
same,no-observed-effect level (NOEL),rats; rats,3011 mg/kg/day
"Oc1ncnc2[nH]ncc12 [allopurinol, reference compound]",Serum uric acid,"[4]; 20 mg/kg intragastrically after PO 250 mg/kg i.p., MG 6.18 ± 0.18, CG 2.16 ± 0.51",2.01 ± 0.34 mg/dL
